Experimental data published in PMC6614837 (Nucleic Acids Research, 2019).

How the values were obtained:
P RNA = assay: Gel-based activity assay, bipartite pre-tRNA substrate, P RNA alone; assay type: biochemical, T. maritima; settings: 100 mM AmOAc, 10 mM MgCl2
Experimental: For gel-based activity assays, reactions were prepared as described in the previous section (fluorescence activity assay), incubated for 1–15 min at 37–50°C, then loaded onto a denaturing 7 M urea–20% acrylamide gel in the case of the Mh substrate or 19% acrylamide (40% acrylamide/bisacrylamide 38.5:1.5) for the bipartite pre-tRNA substrate. The activity conditions for the gel reported in Figure 3A, to monitor the cleavage of the holoenzyme and P RNA, were under 100 mM AmOAc and 10 mM MgCl2. The gels (13 × 16 × 0.15 cm) were electrophoresed at 20 V/cm for 2–3 h. UV shadowing or ethidium bromide staining was used to visualize RNA cleavage. Detection of minihelix fluorescence was achieved without staining using a UV lamp with excitation at ∼254 nm.
Figure 3. The inhibitors purpurin and hematein bind to the holoenzyme. (A) Top. […] Bottom. […] (B) The relative affinities of the inhibitors for the P RNA or the holoenzyme differ. Binding sensorgrams obtained by biolayer interferometry (BLI). P RNA or RNase P holoenzyme was immobilized on super streptavidin (SSA) biosensors through a 5′-biotinylated RNA oligonucleotide complementary to a region on the P1 stem of P RNA (see Materials and Methods). […] In contrast, gentian violet binds not only to P RNA but also to the Mh substrate (Supplementary Figure S16). (C) Molecular Dynamics (MD) simulations of RNase P protein in complex with the validated inhibitors. In each panel, semitransparent spheres represent the geometric center, over a 200 ns trajectory, of the corresponding tested compound. The 5′-leader (yellow) is shown for reference purposes only; it was not included in the simulation. Sphere color coding indicates the starting and final positions in blue and red, respectively. […] Purpurin's starting conformation corresponds to that observed in the crystal structure in complex with the P protein (PDB code: 6MAX. See Figure 5).

RNase P holoenzyme = target: T1, RNase P holoenzyme (Thermotoga maritima, UniProt Q9X1H4); assay: Displacement of pre-tRNA from the holoenzyme (BLI); assay type: binding, T. maritima; settings: holoenzyme on Ni-NTA biosensors, compound 0–400 μM, then pre-tRNA
T1 construct: GST (cleaved yes); made in house; host or cells: E. coli BL21(DE3)pLysS
T1 sequence (Q9X1H4 1-117): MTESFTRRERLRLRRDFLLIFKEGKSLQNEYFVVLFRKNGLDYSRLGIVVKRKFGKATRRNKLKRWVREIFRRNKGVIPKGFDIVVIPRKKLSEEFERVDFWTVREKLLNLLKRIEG
Experimental: Real-time binding assays of the holoenzyme, P RNA, P protein, the substrate minihelix and the 5′-leader to individual compounds were performed by biolayer interferometry using an Octet RED96 system (ForteBio). For the holoenzyme or P RNA, a 5′ biotinylated RNA oligonucleotide with the sequence 5′biotin-CAUUCCAGACGAU was immobilized on Super Streptavidin (SSA) biosensors. Then, a modified P RNA or holoenzyme was added. The P RNA modification consisted of a sequence with part of the P1 stem sequence complementary to the biotinylated oligonucleotide (AUCGUCUGGA) (Supplementary Figure S23A). P1 is far from the active site or other regions involved in specific interactions (Supplementary Figure S23B) ([19]). The activity of this construct was indistinguishable from the wild-type holoenzyme. Alternatively, the holoenzyme was immobilized through the His-tagged P protein from T. maritima at 0.05 mg/ml (3.4 μM) on Ni-NTA biosensors. Control biosensors were used to subtract non-specific binding of compounds to the biosensor surface. All assay steps (immobilization, wash, baseline, association, and dissociation) were performed in 20 mM HEPES pH 7.4, 100 mM ammonium acetate, 10 mM MgCl2, 2.5% DMSO. The assays were performed on black bottom 96-well microplates (Greiner Bio-One 655209) in a total volume of 200 μl, at 30°C with orbital shaking at 1000 rpm. Experiments were controlled with the software Data Acquisition 8.2 (ForteBio, Inc.). Kinetic binding parameters were calculated using Data Analysis 8.2 (ForteBio, Inc.). After subtraction of reference biosensors, the binding curves were aligned to the X- and Y-axis and the association-dissociation inter-step curve in order to get a common baseline for the association and dissociation phases.
Figure 4. Characterization of the inhibition of T. maritima RNase P by purpurin. (A) Best global fit for inhibition of RNase P in the presence of varying concentrations of fluorescent Mh substrate. […] Symbols represent the mean ± standard error as determined from three independent experiments at each concentration. See also Supplementary Figure S18. […] Binding sensorgrams obtained by biolayer interferometry (BLI). RNase P holoenzyme at 400 nM was immobilized on Ni-NTA. […] Binding sensorgrams obtained by biolayer interferometry (BLI). RNase P holoenzyme was immobilized on Ni-NTA biosensors, incubated with purpurin at varying concentrations (0–400 μM), and then the association and dissociation pre-tRNA was monitored. […] See also Supplementary Figure S17.

| Compound | Inhibition of the P RNA reaction (P RNA) | Dose–response displacement of pre-tRNA (RNase P holoenzyme) |
| --- | --- | --- |
| O=C1C=C2CC3(O)COc4c(ccc(O)c4O)C3=C2C=C1O (stereo not drawn) [Hematein, 3,4,6a,10-tetrahydroxy-6a,7-dihydroindeno[2,1-c]chromen-9(6H)-one] | not the P RNA alone | No |
| O=C1C=CC(=O)c2c(O)cccc21 [Juglone, 5-hydroxy-1,4-naphthoquinone] | less clear behavior | No |
| O=C1c2ccccc2C(=O)c2c(O)c(O)cc(O)c21 [Purpurin, 1,2,4-trihydroxyanthraquinone] | not the P RNA alone | displaces bound pre-tRNA in a dose-response behavior and Yes |
